Data as given in article PMC6792352, “Limited Chemical Structural Diversity Found to Modulate Thyroid Hormone Receptor in the Tox21 Chemical Library” (Environmental Health Perspectives, 2019).
Counter-ions that a name gives are not always drawn.

Test: in vitro
Conditions: rat, gh3-tre-luc cells

Row | Structure (SMILES) | CC50 at 24 h (AC50 (uM) modified / 1000) | other results
1 | CCCC(=O)O[C@]1(C(=O)COC(=O)CC)CC[C@H]2[C@@H]3CCC4=CC(=O)CC[C@]4(C)[C@H]3[C@@H](O)C[C@@]21C [Hydrocortisone buteprate] | > 50 µM | 
2 | Nc1ccc(N)c2c1C(=O)c1ccccc1C2=O [1,4-Diaminoanthraquinone] | 55.3 µM | 
3 | CC(=O)c1cc(C(C)(C)C)cc2c1CCC2(C)C [1-(6-tert-Butyl-1,1-dimethyl-2,3-dihydro-1H-inden-4-yl)ethanone] | 40.7 µM | 
4 | O=C(c1ccccc1)c1ccc(O)cc1 [4-Hydroxybenzophenone] | > 90 µM | 
5 | CC(C)OC(=O)Nc1cccc(Cl)c1 [Chlorpropham] | > 90 µM | 
6 | COc1cc(CC(C)N)c(OC)cc1Br (centres unmarked) [4-Bromo-2,5-dimethoxyamphetamine hydrochloride] | 40.8 µM | 
7 | Nc1c(Br)cc(Br)c2c1C(=O)c1ccccc1C2=O [1-Amino-2,4-dibromoanthraquinone] |  | CC50 at 24 h (AC50 (uM) modified / 1000, Tox21_110001=Tox21_202582, viability, 1 nM T3 present, 24 h): > 20 µM
8 | NC(CCC(=O)O)C(=O)O (racemic) [DL-Glutamic acid monohydrate] | > 80 µM | 
9 | COC(=O)CCCCCCCCC(=O)OC [Dimethyl decanedioate] | > 90 µM | 
10 | Cc1cccc(C)c1Nc1ncccc1C(=O)O [Metanixin] | > 50 µM | 
11 | CCCCCN(CCCCC)C(=O)C(CCC(=O)O)NC(=O)c1ccc(Cl)c(Cl)c1 (centres unmarked) [Lorglumide sodium] | > 50 µM | 
12 | O=C(O)c1nc(=O)[nH]c(=O)[nH]1 [Potassium oxonate] | > 50 µM | 
13 | ClCCOCOCCCl [Bis(2-chloroethoxy)methane] |  | CC50 at 24 h (AC50 (uM) modified / 1000, Tox21_110001=Tox21_200284, viability, 1 nM T3 present, 24 h): > 100 µM
14 | C=C[C@@]1(C)CC(=O)[C@]2(O)[C@@]3(C)[C@@H](O)CCC(C)(C)[C@@H]3[C@H](O)[C@H](OC(C)=O)[C@@]2(C)O1 [Forskolin] | > 90 µM | 
15 | C#C[C@]1(O)CC[C@H]2[C@@H]3CCC4=CC(=O)CC[C@]4(C)[C@H]3CC[C@@]21C [Ethisterone] | > 90 µM | 
16 | Oc1ccccc1Cl [2-Chlorophenol] | > 90 µM | 
17 | O=C(O)c1ccc(C(=O)O)cc1 [Terephthalic acid] | > 90 µM | 
18 | CNC(=O)CSP(=O)(OC)OC [Omethoate] |  | CC50 at 24 h (AC50 (uM) modified / 1000, Tox21_110001=Tox21_300968, viability, 1 nM T3 present, 24 h): > 90 µM
19 | Cc1ccc(-c2nc3ccc(C)cn3c2CC(=O)N(C)C)cc1 [Zolpidem] | > 50 µM | 
20 | CCCCCCCC/C=C\CCCCCCCC(=O)OC[C@@H](O)[C@H]1OC[C@H](O)[C@H]1O [Sorbitan, mono-(9Z)-9-octadecenoate] | > 50 µM | 
21 | CCCOC(=O)c1ccc(N)cc1 [Risocaine] | > 50 µM | 
22 | C=CCC1([C@H](C)CCC)C(=O)NC(=O)NC1=O [R-(+)-Secobarbital] | > 90 µM | 
23 | Nc1ccc(N)c(Cl)c1 [2-Chloro-1,4-diaminobenzene sulfate] | > 90 µM | 
24 | O=P(O)(O)OCC(O)CO (centres unmarked) [Dipotassium glycerophosphate] | > 50 µM | 
25 | CCN(CC)CCc1c[nH]c2ccccc12 [N,N-Diethyltryptamine fumarate] |  | CC50 at 24 h (AC50 (uM) modified / 1000, Tox21_110001=Tox21_112891, viability, 1 nM T3 present, 24 h): > 100 µM
26 | CC(=O)C=C(C)C [4-Methylpent-3-en-2-one] |  | CC50 at 24 h (AC50 (uM) modified / 1000, Tox21_110001=Tox21_202080, viability, 1 nM T3 present, 24 h): > 100 µM; CC50 at 24 h (AC50 (uM) modified / 1000, Tox21_110001=Tox21_303606, viability, 1 nM T3 present, 24 h): > 90 µM
27 | O=[N+]([O-])c1cccc(I)c1 [1-Iodo-3-nitrobenzene] | > 90 µM | 

Row | Structure (SMILES) | CC50 at 24 h (AC50 (uM) modified / 1000) | other results
28 | c1ccc(COCc2ccccc2)cc1 [Dibenzyl ether] | > 100 µM | 
29 | C=CCOCC1CO1 (centres unmarked) [Allyl glycidyl ether] | > 90 µM | 
30 | CCCCOC(=O)CCS [Butyl 3-mercaptopropionate] | > 90 µM | 
31 | C=CC(=C)CCCC(C)(C)OC(C)=O [2-methyl-6-methylideneoct-7-en-2-yl acetate] | > 90 µM | 
32 | O=C(O)CC(Cl)C(=O)O (centres unmarked) [Chlorobutanedioic acid] | > 90 µM | 
33 | C=C(C)C(=O)OCC(C)O (centres unmarked) [2-Hydroxypropyl 2-methylacrylate] | > 90 µM | 
34 | COc1ccc(/C=C/C(=O)Nc2ccccc2C(=O)O)cc1OC [Tranilast] | > 50 µM | 
35 | Nc1ccc(Cl)cc1 [4-Chloroaniline hydrochloride] |  | CC50 at 24 h (AC50 (uM) modified / 1000, Tox21_110001=Tox21_201627, viability, 1 nM T3 present, 24 h): > 90 µM
36 | O=C(O)c1ccccc1-c1ccc(C(F)(F)F)cc1 [Xenalipin] | > 50 µM | 
37 | CC[C@H](C)[C@H]1O[C@]2(CC[C@@H]1C)C[C@@H]1C[C@@H](C/C=C(\C)[C@@H](O[C@H]3C[C@H](OC)[C@@H](O[C@H]4C[C@H](OC)[C@@H](O)[C@H](C)O4)[C@H](C)O3)[C@@H](C)/C=C/C=C3\CO[C@@H]4[C@H](O)C(C)=C[C@@H](C(=O)O1)[C@]34O)O2 [Ivermectin B1a] | 2.85 µM | 
38 | CN(C)/N=N/c1[nH]cnc1C(N)=O [Dacarbazine] | > 90 µM | 
39 | c1ccc2scnc2c1 [Benzothiazole] | > 90 µM | 
40 | CCCCCCCCCCCCCCCCN(C)C [Dimethylcetylamine] | > 5 µM | 
41 | CCN(CC)CCOC(=O)C(O)(c1ccccc1)c1ccccc1 [Benactyzine] | > 50 µM | 
42 | CCCCCCCCCCCCCCN(C)C [N,N-Dimethyltetradecylamine] | > 20 µM | 
43 | COCC(C)OCC(C)OC(C)=O (centres unmarked) [Dipropyleneglycol methyl ether acetate] | > 90 µM | 
44 | O=c1oc2ccccc2c(O)c1C(CC(O)c1ccc(-c2ccc(Br)cc2)cc1)c1ccccc1 (centres unmarked) [Bromadiolone] | > 90 µM | 
45 | Nc1ccc(S(=O)(=O)c2ccc(N)cc2)cc1 [Dapsone] | > 50 µM | 
46 | CC[C@@H](CO)NC(=O)[C@@H]1C=C2c3cccc4[nH]cc(c34)C[C@H]2N(C)C1 [Methergine] |  | CC50 at 24 h (AC50 (uM) modified / 1000, Tox21_110001=Tox21_110809, viability, 1 nM T3 present, 24 h): > 50 µM
47 | O=[N+]([O-])c1ccc(Oc2ccc(Cl)cc2Cl)cc1 [Nitrofen] |  | CC50 at 24 h (AC50 (uM) modified / 1000, Tox21_110001=Tox21_202438, viability, 1 nM T3 present, 24 h): > 90 µM
48 | CNC(=S)NN [N-Methylhydrazinecarbothioamide] | 52.5 µM | 
49 | CC(C)(C)C(=O)/C=C/c1ccc(Cl)cc1 [1-(4-Chlorophenyl)-4,4-dimethylpent-1-en-3-one] | > 90 µM | 
50 | COC(=O)c1ccc2cc(C(=O)OC)ccc2c1 [Dimethyl 2,6-naphthalenedicarboxylate] | > 20 µM | 
51 | O=c1c(O)c(O)c1=O [Squaric acid] | > 90 µM | 
52 | CCN[C@H]1C[C@H](C)S(=O)(=O)c2sc(S(N)(=O)=O)cc21 [Dorzolamide hydrochloride] | > 50 µM | 
53 | Nc1ccc(Cc2ccc(N)cc2)cc1 [4,4'-Methylenedianiline] |  | CC50 at 24 h (AC50 (uM) modified / 1000, Tox21_110001=Tox21_201723, viability, 1 nM T3 present, 24 h): > 90 µM
54 | C=C(C)C(=O)Nc1ccc(Cl)c(Cl)c1 [Chloranocryl] | > 90 µM | 

Row | Structure (SMILES) | CC50 at 24 h (AC50 (uM) modified / 1000) | other results
55 | O=C(O)COCC(=O)O [Diglycolic acid] | > 90 µM | 
56 | CCCC(C)C(=O)O (centres unmarked) [2-Methylpentanoic acid] | > 90 µM | 
57 | COc1ccc(N)c([N+](=O)[O-])c1 [4-Methoxy-2-nitroaniline] | > 90 µM | 
58 | ClCC(Cl)(Cl)Cl [1,1,1,2-Tetrachloroethane] |  | CC50 at 24 h (AC50 (uM) modified / 1000, Tox21_110001=Tox21_201109, viability, 1 nM T3 present, 24 h): > 100 µM
59 | Clc1c(Cl)c(Cl)c(Cl)c(Cl)c1Cl [Hexachlorobenzene] | > 5 µM | 
60 | CC(=O)c1ccccc1[N+](=O)[O-] [2-Nitroacetophenone] | > 90 µM | 
61 | O=C1CCCCCCCCCCOCCCCO1 [12-Oxahexadecanolide] | > 90 µM | 
62 | CC/C=C\CC/C=C/CO [trans-2,cis-6-Nonadien-1-ol] | > 90 µM | 
63 | C[C@@H]1CC[C@H]2C(C)(C)C3CC12CC[C@@]3(C)O (single isomer, unassigned; (+)) [(+)-Cedrol] | 71.6 µM | 
64 | Nc1nc[nH]n1 [Amitrole] | > 90 µM | 
65 | C[N+](C)(C)CC(O)CCl (centres unmarked) [Dextrosil] | > 90 µM | 
66 | O=CCCc1ccccc1 [3-Phenylpropanal] | > 90 µM | 
67 | FC(F)(F)c1ccc(Cl)cc1 [1-Chloro-4-(trifluoromethyl)benzene] | > 90 µM | 
68 | Nc1ccc(-c2ccc(F)cc2)cc1 [4'-Fluoro-4-aminodiphenyl] | > 90 µM | 
69 | Cc1ccccc1OP(=O)(Oc1ccccc1C)Oc1ccccc1C [Tri-o-cresyl phosphate] |  | CC50 at 24 h (AC50 (uM) modified / 1000, Tox21_110001=Tox21_202983, viability, 1 nM T3 present, 24 h): 63.4 µM
70 | COC(=O)C(CN)c1c[nH]c2ccc(OC)cc12 (centres unmarked) [Indorenate hydrochloride] | > 50 µM | 
71 | OC(CN1CCC(Cc2ccc(F)cc2)CC1)c1ccc(Cl)cc1 (centres unmarked) [Eliprodil] | > 50 µM | 
72 | O=C1OC[C@@H](Cc2cccc(O)c2)[C@@H]1Cc1cccc(O)c1 [Enterolactone] | > 30 µM | 
73 | C[N+](C)(CCOc1ccccc1)Cc1cccs1 [Dimethyl(2-phenoxyethyl)-2-thenylammonium iodide] | > 50 µM | 
74 | c1ccc2c(c1)c1cccc3ccc4cccc2c4c31 [Benzo(e)pyrene] | > 90 µM | 
75 | Nc1nnc(-c2cccc(Cl)c2Cl)c(N)n1 [Lamotrigine] | > 50 µM | 
76 | CCCCCCCN [Heptylamine] | > 90 µM | 
77 | CN(C)CCc1c[nH]c2cccc(O)c12 [Psilocin] | > 90 µM | 
78 | C=CC(=O)N1CCOCC1 [1-(Morpholin-4-yl)prop-2-en-1-one] | > 90 µM | 
79 | CCO[Si](CCCSSSSCCC[Si](OCC)(OCC)OCC)(OCC)OCC [4,4,15,15-Tetraethoxy-3,16-dioxa-8,9,10,11-tetrathia-4,15-disilaoctadecane] | 70.3 µM | 
